Measurements from patent publication US20240415819A1, “MACROCYCLIC COMPOUNDS AS PROTEASOME SUBUNIT BETA TYPE-5 INHIBITORS” (Lead Discovery Center GmbH, priority 2021, published 2024).
Read-outs that look alike come from different tables or passages of the source.

Columns and labels:
[1] = tested on: B-cells isolated from PBMC's; assay: Chymotrypsin-like ProteasomeGlo assay in B-cells isolated from PBMCs; type: cell-based, human; conditions: Homo sapiens
From the text: PBMC's will be isolated from human blood followed by B-cell isolation from the PBMC's using the Miltenyi Isolation Kit. • 2. This experiment will use the Chymotrypsin-like ProteasomeGlo read-out to generate IC50's following compound treatment. • 3. Dilute all compounds 1:100 for the assay. • 4. […] Repeat the DMSO transfer with lane 12. • 5. Lane 12 should not be seeded with any cells. Only medium! • 6. For all steps, make sure the samples and reagents remain cool! • 7. While dealing with the buffy coats, be careful to not let any exposed skin to be in direct contact with the blood. […] PBMC isolation followed by B-cell isolation using the Miltenyi Kit • Day 2: B-cell plating, ECHO transfer and ProteasomeGlo assay For the initial steps and to make processing the buffy coats easier, separately process the buffy coats. • a. Cut the tube attached to the buffy coats carefully using a clean, sterile and fresh scalpel. • b. Transfer the blood into 2 individual 50 ml falcons. • c. Add an equal volume of DPBS to the blood in the falcons. • d. Add 20 ml of lymphocyte separating medium to two 50 ml falcons. • e. Carefully pour 15-20 ml of the blood+DPBS mix from step c. onto the lymphocyte separating medium from step d. • f. Centrifuge the falcons with the lymphocyte separating medium+blood mix at 800×g for 15 minutes using a swing-out rotor. • g. Following centrifugation, carefully remove the falcons from the centrifuge. • h. The following layers will be observed: • i. Aspirate the plasma layer off carefully without disturbing the different layers. • j. Remove the cell pellet using a pipette into two fresh 50 ml falcons. • k. Fill the falcons with the cells up to 50 ml with DPBS. • l. Centrifuge the falcons at 250×g for 10 minutes using a swing-out rotor (Brake-off). • m. Aspirate the complete DPBS off the cells without disturbing the cell pellet at the bottom of the falcon. • n. Re-suspend the cell pellet in 10 ml of 1×RBC lysis buffer. • o. Incubate the falcons at room temperature in the dark for 10 minutes. • p. After RBC lysis, centrifuge the tubes at 250×g for 10 minutes using a swing-out rotor (brake-off). • (*Note: If the cell pellet is still red or light red, repeat steps n. to p.!) • q. Re-suspend the cell pellet in DPBS up to 50 ml in the falcon. • r. Centrifuge the falcons at 250×g for 10 minutes using a swing-out rotor (Brake-off). • s. Aspirate the DPBS off the cells without disturbing the cell pellet at the bottom of the falcon. • t. Repeat the wash step as described in steps q. to s. 2× times more (total number of washes is 3×). • u. Aspirate the DPBS completely off the cell pellet after the last wash without disturbing the cell pellet. • v. Re-suspend the cell pellet in 20 ml of PBMC cell medium. • w. […] Re-suspend the pellet in volume of the B-cell isolation buffer calculated as follows: • k. Mix well using a 1 ml pipette and incubate the mix on ice for 20 mins. • l. In the meantime, equilibrate one LS Column as follows: • 1. Insert one LS Column into one slot of the separator as depicted in the pictures above. • 2. Place a 50 ml falcon at the bottom of the LS column to collect the wash flow-through. • 3. Add 3 ml of the B-cell isolation buffer into the column. • 4. Allow the buffer to flow-through making sure that the entire volume passes the column and that the column reservoir is empty before the addition of the cells. • 5. Remove the falcon with the flow-through and discard. • m. Place a fresh 50 ml falcon under the LS Column to collect the untouched B-cells isolated from the PBMCs. • n. Apply the entire volume of the cell+antibody+microbeads mix to the LS Column. • o. Collect the flow-through from each application of the mix into the same 50 ml falcon under the LS Column. • p. Once the complete volume of the cell+antibody+microbead mix has been passed through, proceed to washing of the column. • q. Add 3 ml of the B-cell isolation buffer to the LS Column and allow the buffer to flow-through. […]

[2] = tested on: Karpas cells; assay: Glo assay of Karpas cells (Table 3; ProteasomeGlo plating scheme); type: cell-based; conditions: read-out: Pglo Karpas
From the text: Inhibition is indicated as IC50 [nM] (“-”=not measured). […] • Chymotrypsin-Like Cell-Based Proteasome-GloTM Assay (Promega; […]) • Cell culture 384-well plates (Greiner BioOne; 781080) • Dispensing cassette, MultiDrop Standard tube dispensing cassette (Thermo Scientific; 24072670) • DPBS (Pan BioTech; P04-36500) • Cell culture 384-well plates (Greiner BioOne; 781080) • CPD source plate: diamond-shape plate (Labcyte; LP-0200) • Intermediate plate (Labcyte; P-05525) [table] • a. Remove the plates with cells from the incubator. • b. Take all the plates including the compound plate, intermediate plate and Staurosporine plate to the ECHO. • c. Click on “Open” in the ECHO software and select the protocol “QLI5_25ul_30 uM-Grenier”. • d. Follow the on-screen prompts and instructions once you click “Start” to insert the compound plate, intermediate plate and destination plates. • e. Change the final number of destination plates on the program. • f. Follow the on-screen prompts and instructions once you click “Start” to load the Staurosporine and destination plates. • g. Once all the compounds, DMSO and Staurosporine have been transferred, place the destination plates in a wet tissue box. • h. Place the destination plates back into the incubator and incubate at 37° C., 5% CO2 for 105 minutes. • i. Re-seal all the compound+Stauro diamond and intermediate plates and store in the dark. Chymotrypsin like ProteasomeGlo Assay • 1. Thaw the components of the ProteasomeGlo assay at room temperature including the ProteasomeGlo Buffer, the lyophilized Luciferin Detection Reagent and the Suc-LLVY-Glo Substrate. • 2. Reconstitute the Luciferin Detection Reagent in the amber coloured bottle by adding 50 ml of the ProteasomeGlo Buffer. • 3. Vortex the Suc-LLVY-Glo Substrate briefly to reconstitute the Substrate well. • 4. Spin down the Substrate and add 250 μl of the Substrate to the reconstituted Luciferin Detection Reagent from step 2. • 5. Briefly vortex the amber bottle with the mix to prepare a homogenous solution. • 6. Place the mix prepared in step 5 to sit at room temperature for 60 minutes. • 7. After 60 minutes, pipette 25 μl of the mix from step 5 into all wells with the cells. • 8. Shake the plates for 2-5 minutes to ensure the complete mixing of the ProteasomeGlo reagent with the cells. • 9. Leave the plates in the dark for 10-15 minutes. • 10. Measure the luminescence read-out using the Viktor and the protocol “Luminescence_384Well_0.2 sec”. (Note: The Protoeasome-GloTM Reagent (combined Proteasome-GloTM Substrate, Proteasome-GloTM Buffer and Luciferin Detection Reagent) can be stored at 4° C. or -20° C. for 1 month with minimal loss of activity.)

[3] = B-cells isolated from PBMC's, read-out: Pglo B-Cell

IC50 [2]	SMILES	IC50 [1, 3]	IC50 ([1]; read-out: Pglo B-Cell [nM])
–	Cc1ccc2cc1CNC(=O)[C@H](CCc1ccccc1)NC(=O)[C@@H](NC(=O)c1ccccn1)CC(=O)N1CCCC(CCO2)C1 (stereo partly drawn) [Compound 40, N-((9S,12S)-5^4-methyl-8,11,14-trioxo-9-phenethyl-4-oxa-7,10-diaza-1(3,1)-piperidina-5(1,3)-benzenacyclotetradecaphane-12-yl)picolinamide]	< 100 nM	–
< 100 nM	Cc1ccc2cc1CNC(=O)[C@H](CCc1ccccc1)NC(=O)[C@@H](NC(=O)CN1CCOCC1)CC(=O)N1CCCC(CCO2)C1 (stereo partly drawn) [Compound 88, N-((9S,12S)-5^4-methyl-8,11,14-trioxo-9-phenethyl-4-oxa-7,10-diaza-1(3,1)-piperidina-5(1,3)-benzenacyclotetradecaphane-12-yl)-2-morpholinoacetamide]	< 100 nM	–
–	Cc1ccc2cc1CNC(=O)C(CCc1cccnc1)NC(=O)CCC(=O)N1CCCC(CCO2)C1 (stereo not drawn) [Compound 51, 5^4-methyl-9-(2-(pyridin-3-yl)ethyl)-4-oxa-7,10-diaza-1(3,1)-piperidina-5(1,3)-benzenacyclotetradecaphane-8,11,14-trione]	< 100 nM	–
–	Cc1ccc2cc1CNC(=O)[C@H](CCc1ccccc1)NC(=O)[C@@H](NC(=O)CCc1cccc(F)c1)CC(=O)N1CCCC(CCO2)C1 (stereo partly drawn) [Compound 25, 3-(3-fluorophenyl)-N-((9S,12S)-5^4-methyl-8,11,14-trioxo-9-phenethyl-4-oxa-7,10-diaza-1(3,1)-piperidina-5(1,3)-benzenacyclotetradecaphane-12-yl)propanamide]	< 100 nM	–
< 100 nM	Cc1ccc2cc1CNC(=O)[C@H](CCc1ccccc1)NC(=O)[C@@H](N)CC(=O)N1CCCC(CCO2)C1 (stereo partly drawn) [Compound 8, (9S,12S)-12-amino-5^4-methyl-9-phenethyl-4-oxa-7,10-diaza-1(3,1)-piperidina-5(1,3)-benzenacyclotetradecaphane-8,11,14-trione]	< 100 nM	–
< 100 nM	Cc1ccc2cc1CNC(=O)[C@H](CCc1ccccc1)NC(=O)[C@@H](NC(=O)[C@H](C)c1ccccc1)CC(=O)N1CCCC(CCO2)C1 (stereo partly drawn) [Compound 80, (2R)-N-((9S,12S)-5^4-methyl-8,11,14-trioxo-9-phenethyl-4-oxa-7,10-diaza-1(3,1)-piperidina-5(1,3)-benzenacyclotetradecaphane-12-yl)-2-phenylpropanamide]	< 100 nM	–
< 100 nM	Cc1ccc2cc1CNC(=O)[C@H](CCc1ccccc1)NC(=O)[C@@H](NC(=O)C1CCCc3ccccc31)CC(=O)N1CCCC(CCO2)C1 (stereo partly drawn) [Compound 82, N-((9S,12S)-5^4-methyl-8,11,14-trioxo-9-phenethyl-4-oxa-7,10-diaza-1(3,1)-piperidina-5(1,3)-benzenacyclotetradecaphane-12-yl)-1,2,3,4-tetrahydronaphthalene-1-carboxamide]	< 100 nM	–
< 100 nM	Cc1ccc2cc1CNC(=O)[C@H](CCc1ccccc1)NC(=O)[C@@H](NC(=O)c1cc3cc(C(F)(F)F)ccc3n1C)CC(=O)N1CCCC(CCO2)C1 (stereo partly drawn) [Compound 87, 1-methyl-N-((9S,12S)-5^4-methyl-8,11,14-trioxo-9-phenethyl-4-oxa-7,10-diaza-1(3,1)-piperidina-5(1,3)-benzenacyclotetradecaphane-12-yl)-5-(trifluoromethyl)-1H-indole-2-carboxamide]	–	–
< 100 nM	COc1cccc(CC(=O)N[C@H]2CC(=O)N3CCCC(CCOc4ccc(C)c(c4)CNC(=O)[C@H](CCc4ccccc4)NC2=O)C3)c1 (stereo partly drawn) [Compound 85, 2-(3-methoxyphenyl)-N-((9S,12S)-5^4-methyl-8,11,14-trioxo-9-phenethyl-4-oxa-7,10-diaza-1(3,1)-piperidina-5(1,3)-benzenacyclotetradecaphane-12-yl)acetamide]	–	–
< 100 nM	CO[C@@H](C(=O)N[C@H]1CC(=O)N2CCCC(CCOc3ccc(C)c(c3)CNC(=O)[C@H](CCc3ccccc3)NC1=O)C2)c1ccccc1 (stereo partly drawn) [Compound 86, (2R)-2-methoxy-N-((9S,12S)-5^4-methyl-8,11,14-trioxo-9-phenethyl-4-oxa-7,10-diaza-1(3,1)-piperidina-5(1,3)-benzenacyclotetradecaphane-12-yl)-2-phenylacetamide]	–	–
–	Cc1ccc2cc1CNC(=O)[C@H](CCc1ccccc1)NC(=O)[C@@H](NC(=O)c1ccccc1)CC(=O)N1CCCC(CCO2)C1 (stereo partly drawn) [Compound 26, N-((9S,12S)-5^4-methyl-8,11,14-trioxo-9-phenethyl-4-oxa-7,10-diaza-1(3,1)-piperidina-5(1,3)-benzenacyclotetradecaphane-12-yl)benzamide]	< 100 nM	–
–	CCOC(=O)N[C@H]1CC(=O)N2CCCC(CCOc3ccc(C)c(c3)CNC(=O)[C@H](CCc3ccccc3)NC1=O)C2 (stereo partly drawn) [Compound 39, ethyl ((9S,12S)-5^4-methyl-8,11,14-trioxo-9-phenethyl-4-oxa-7,10-diaza-1(3,1)-piperidina-5(1,3)-benzenacyclotetradecaphane-12-yl)carbamate]	–	< 100 nM
< 100 nM	COc1ccccc1CC(=O)N[C@H]1CC(=O)N2CCCC(CCOc3ccc(C)c(c3)CNC(=O)[C@H](CCc3ccccc3)NC1=O)C2 (stereo partly drawn) [Compound 84, 2-(2-methoxyphenyl)-N-((9S,12S)-5^4-methyl-8,11,14-trioxo-9-phenethyl-4-oxa-7,10-diaza-1(3,1)-piperidina-5(1,3)-benzenacyclotetradecaphane-12-yl)acetamide]	–	–
< 100 nM	Cc1ccc2cc1CNC(=O)[C@H](CCc1ccccc1)NC(=O)[C@@H](NC(=O)CN1CCCC1)CC(=O)N1CCCC(CCO2)C1 (stereo partly drawn) [Compound 89, N-((9S,12S)-5^4-methyl-8,11,14-trioxo-9-phenethyl-4-oxa-7,10-diaza-1(3,1)-piperidina-5(1,3)-benzenacyclotetradecaphane-12-yl)-2-(pyrrolidin-1-yl)acetamide]	–	–
